Patent publication US20230391736A1, “3-TETRAZOLYLMETHYL-1,3,5-TRIAZIN-2,4-DIONE COMPOUND INHIBITING CORONAVIRUS 3CL PROTEASE ACTIVITY AND PREPARATION METHOD AND USE THEREOF” (priority 2022, published 2023)
Like-named read-outs stand apart in the source and are kept apart here.

Assays:
[1] = system: HepG2 cells; test: In-vitro cytotoxicity by the MTT method, HepG2 cells; settings: 24 hrs
Protocol: (§1) The in-vitro cytotoxicity of Compounds 1, 12, and 17 was evaluated by the MTT method. HepG2, HEK293 and A549 cells in logarithmic growth phase were respectively trypsinized into a cell suspension. The cell density was adjusted to 5×10^4 cells/mL. 180 μL per well of the cell suspension was inoculated into a sterile 96-well plate at 37° C., and cultured in an incubator at 5% CO2 for 24 hrs. After the cells were attached to the bottom of the plate, 20 μL of the drug solutions over the concentration gradients were respectively added into each well, and 6 replicate wells were set in parallel. Also, a blank group (group without cells and drug) and a control group (group without drug) were set. The system was incubated in an incubator at 37° C. and 5% CO2 for 24 hrs, and then 20 μL per well of a 5 g/L MTT solution was added and incubated for another 4 hrs. After the incubation was completed, the culture medium in the well was gently aspirated, and 100 μL of DMSO was added to each well. Then the crystal was fully dissolved in a shaker for 10 min at a low speed. After that, the absorbency of each well was measured at OD490 nm in an enzymelinked immunodetector, and the survival rate of cells was calculated.

[2] = system: HEK293 cells; test: In-vitro cytotoxicity by the MTT method, HEK293 cells; settings: 24 hrs
Protocol: as §1

[3] = molecular target: SARS-CoV-2 3CL^pro (Severe acute respiratory syndrome coronavirus 2 (2019-nCoV) (SARS-CoV-2), UniProt P0DTD1); test: biochemical; settings: for IC50: FRET
[4] = system: A549 cells; test: In-vitro cytotoxicity by the MTT method, A549 cells; settings: 24 hrs
Protocol: as §1

[5] = class symbols, read-out: IC50 (nM), inhibitory activity against 3CL^pro

Cn1cc2cc(/N=c3\[nH]c(=O)n(Cc4nnn[nH]4)c(=O)n3Cc3cc(F)c(F)cc3F)c(Cl)cc2n1 [Compound 1]
Survival rate of HepG2 cells ([1]; 1.5625 nM): 97.17%
Survival rate of HepG2 cells ([1]; 3.125 nM): 96.73%
Survival rate of HepG2 cells ([1]; 6.25 nM): 95.83%
Survival rate of HepG2 cells ([1]; 12.5 nM): 93.62%
Survival rate of HepG2 cells ([1]; 25 nM): 90.15%
Survival rate of HepG2 cells ([1]; 50 nM): 89.09%
Survival rate of HepG2 cells ([1]; 100 nM): 85.37%
Survival rate of HepG2 cells ([1]; 200 nM): 84.76%
Survival rate of HepG2 cells ([1]; 400 nM): 82.33%
Survival rate of HEK293 cells ([2]; 1.5625 nM): 95.07%
Survival rate of HEK293 cells ([2]; 3.125 nM): 95.62%
Survival rate of HEK293 cells ([2]; 6.25 nM): 93.10%
Survival rate of HEK293 cells ([2]; 12.5 nM): 90.50%
Survival rate of HEK293 cells ([2]; 25 nM): 88.23%
Survival rate of HEK293 cells ([2]; 50 nM): 87.10%
Survival rate of HEK293 cells ([2]; 100 nM): 82.87%
Survival rate of HEK293 cells ([2]; 200 nM): 82.56%
Survival rate of HEK293 cells ([2]; 400 nM): 80.83%
IC50 [3, 5]: < 200 nM
IC50 ([3]; non-linear regression, read-out: IC50 against 3CL^pro): 120 nM
inhibition percentage of 3CL^pro ([3]; concentration 0.1 nM): 0.86%
inhibition percentage of 3CL^pro ([3]; concentration 1 nM): 2.12%
inhibition percentage of 3CL^pro ([3]; concentration 5 nM): 7.77%
inhibition percentage of 3CL^pro ([3]; concentration 10 nM): 9.75%
inhibition percentage of 3CL^pro ([3]; concentration 20 nM): 14.30%
inhibition percentage of 3CL^pro ([3]; concentration 30 nM): 18.23%
inhibition percentage of 3CL^pro ([3]; concentration 50 nM): 21.89%
inhibition percentage of 3CL^pro ([3]; concentration 100 nM): 58.21%
inhibition percentage of 3CL^pro ([3]; concentration 500 nM): 73.44%
inhibition percentage of 3CL^pro ([3]; concentration 1000 nM): 89.12%
Survival rate of A549 cells ([4]; 1.5625 nM): 98.18%
Survival rate of A549 cells ([4]; 3.125 nM): 98.39%
Survival rate of A549 cells ([4]; 6.25 nM): 98.23%
Survival rate of A549 cells ([4]; 12.5 nM): 96.93%
Survival rate of A549 cells ([4]; 25 nM): 96.16%
Survival rate of A549 cells ([4]; 50 nM): 96.33%
Survival rate of A549 cells ([4]; 100 nM): 95.75%
Survival rate of A549 cells ([4]; 200 nM): 93.23%
Survival rate of A549 cells ([4]; 400 nM): 92.19%

Cn1cc2cc(/N=c3\[nH]c(=O)n(Cc4nnn[nH]4)c(=O)n3Cc3ccccc3)c(Cl)cc2n1 [Compound 2, (E)-3-((1H-tetrazol-5-yl)methyl)-1-benzyl-6-((6-chloro-2-methyl-2H-indazol-5-yl)imino)-1,3,5-triazin-2,4-dione]
IC50 [3, 5]: 500 to 1000 nM

Cc1ccc(Cn2c(Nc3cc4cn(C)nc4cc3Cl)nc(=O)n(Cc3nnn[nH]3)c2=O)cc1 [Compound 3, (E)-3-(1H-tetrazol-5-yl)methyl)-6-(6-chloro-2-methyl-2H-indazol-5-yl)imino)-1-(4-methylbenzyl)-1,3,5-triazin-2,4-dione]
IC50 [3, 5]: 500 to 1000 nM

Cn1cc2cc(/N=c3\[nH]c(=O)n(Cc4nnn[nH]4)c(=O)n3Cc3ccc(C(C)(C)C)cc3)c(Cl)cc2n1 [Compound 4]
IC50 [3, 5]: 500 to 1000 nM

Cn1cc2cc(/N=c3\[nH]c(=O)n(Cc4nnn[nH]4)c(=O)n3Cc3ccc(Cl)cc3)c(Cl)cc2n1 [Compound 5]
IC50 [3, 5]: 200 to 500 nM

Cn1cc2cc(/N=c3\[nH]c(=O)n(Cc4nnn[nH]4)c(=O)n3Cc3ccc(Br)cc3)c(Cl)cc2n1 [Compound 6]
IC50 [3, 5]: 200 to 500 nM

Cn1cc2cc(Nc3nc(=O)n(Cc4nnn[nH]4)c(=O)n3Cc3ccc(-c4ccccc4)cc3)c(Cl)cc2n1 [Compound 7, (E)-3-((1H-tetrazol-5-yl)methyl)-1-([1,1-biphenyl]-4-ylmethyl)-6-((6-chloro-2-methyl-2H-indazol-5-yl)imino)-1,3,5-triazin-2,4-dione]
IC50 [3, 5]: > 1000 nM

Cn1cc2cc(Nc3nc(=O)n(Cc4nnn[nH]4)c(=O)n3Cc3ccc(C(F)(F)F)cc3)c(Cl)cc2n1 [Compound 8, (E)-3-(1H-tetrazol-5-yl)methyl)-6-(6-chloro-2-methyl-2H-indazol-5-yl)imino)-1-(4-(trifluoromethyl)benzyl)-1,3,5-triazin-2,4-dione]
IC50 [3, 5]: 500 to 1000 nM

Cn1cc2cc(/N=c3\[nH]c(=O)n(Cc4nnn[nH]4)c(=O)n3Cc3ccc([N+](=O)[O-])cc3)c(Cl)cc2n1 [Compound 9]
IC50 [3, 5]: > 1000 nM

COc1ccc(Cn2c(=O)n(Cc3nnn[nH]3)c(=O)[nH]/c2=N\c2cc3cn(C)nc3cc2Cl)cc1 [Compound 10]
IC50 [3, 5]: 200 to 500 nM

Cn1cc2cc(/N=c3\[nH]c(=O)n(Cc4nnn[nH]4)c(=O)n3Cc3ccc(OC(F)(F)F)cc3)c(Cl)cc2n1 [Compound 11]
IC50 [3, 5]: 500 to 1000 nM
